Tested on: New Zealand White male rabbits
Assay: In vivo anesthetized rabbit model (hypotensive effect: mean arterial pressure and heart rate)
Experimental: Methods: New Zealand White male rabbits (3-4 kg) are anesthetized with sodium pentobarbital (30 mg/kg, i.v.) and a surgical plane of anesthesia is maintained by a continuous infusion of sodium pentobarbital (16 mg/kg/hr) via an ear vein catheter. A tracheotomy is performed through a ventral midline cervical incision and the rabbits are ventilated with 100% oxygen using a positive pressure ventilator. Body temperature is maintained at 38.5° C. using a heating pad connected to a YSI temperature controller model 72 (Yellow Springs Instruments, Yellow Springs, […].). Fluid-filled catheters are placed in the right jugular vein (for intravenous drug administration) and in the right carotid artery for arterial pressure monitoring and for blood gas analysis using a model 248 blood gas analyzer (Bayer Diagnostics, Norwood, Mass.). The ventilator is adjusted as needed to maintain blood pH and pCO2 within normal physiological ranges for rabbits. […] Blood is sampled after dosing or during the infusion of the test compound to determine plasma concentrations of the test compounds.
Thus, dosing volumes were 0.2 ml/kg (Group A) subcutaneously or 5 ml/h (Groups B, C, and D) as an intravenous (IV) infusion. The term “mgA” means the number of milligrams adjusted for active compound (e.g. corrected for salt etc.).
Dosing: Four groups (Groups A, B, C, and D) of two rabbits each were dosed as follows.

[1] = Group B, 167 μg/kg/h IV infusion
[2] = Group C, 16.7 μg/kg/h IV infusion

SMILES: O=C([O-])c1ccc(CCCN2C(=O)CC[C@@H]2CC[C@@H](O)Cc2cccc(C(F)(F)F)c2)s1.[Na+] [Compound 3M sodium salt]
- duration of hemodynamic effect (Group A, 1 mgA/kg SC): sustained over the entire 4 hour post-dose interval
- effect on heart rate (Group A, 1 mgA/kg SC): increase in heart rate
- effect on mean arterial pressure (Group A, 1 mgA/kg SC): decrease in mean arterial pressure
- onset of hemodynamic effect (Group A, 1 mgA/kg SC): < 2 min
- mean arterial pressure (MAP) (Group A, 1 mgA/kg SC bolus, 5 min post-dose, mean of 2, baseline 92): 69 mm Hg
- heart rate (HR) (Group A, 1 mgA/kg SC bolus, 5 min post-dose, mean of 2, baseline 243): 268 beats/minute
- mean arterial pressure (MAP) (Group A, 1 mgA/kg SC bolus, 10 min post-dose, mean of 2, baseline 92): 59 mm Hg
- heart rate (HR) (Group A, 1 mgA/kg SC bolus, 10 min post-dose, mean of 2, baseline 243): 283 beats/minute
- mean arterial pressure (MAP) (Group A, 1 mgA/kg SC bolus, 15 min post-dose, mean of 2, baseline 92): 60 mm Hg
- heart rate (HR) (Group A, 1 mgA/kg SC bolus, 15 min post-dose, mean of 2, baseline 243): 285 beats/minute
- mean arterial pressure (MAP) (Group A, 1 mgA/kg SC bolus, 30 min post-dose, mean of 2, baseline 92): 59 mm Hg
- heart rate (HR) (Group A, 1 mgA/kg SC bolus, 30 min post-dose, mean of 2, baseline 243): 284 beats/minute
- mean arterial pressure (MAP) (Group A, 1 mgA/kg SC bolus, 60 min post-dose, mean of 2, baseline 92): 59 mm Hg
- heart rate (HR) (Group A, 1 mgA/kg SC bolus, 60 min post-dose, mean of 2, baseline 243): 288 beats/minute
- mean arterial pressure (MAP) (Group A, 1 mgA/kg SC bolus, 90 min post-dose, mean of 2, baseline 92): 59 mm Hg
- heart rate (HR) (Group A, 1 mgA/kg SC bolus, 90 min post-dose, mean of 2, baseline 243): 284 beats/minute
- mean arterial pressure (MAP) (Group A, 1 mgA/kg SC bolus, 120 min post-dose, mean of 2, baseline 92): 58 mm Hg
- heart rate (HR) (Group A, 1 mgA/kg SC bolus, 120 min post-dose, mean of 2, baseline 243): 278 beats/minute
- mean arterial pressure (MAP) (Group A, 1 mgA/kg SC bolus, 150 min post-dose, mean of 2, baseline 92): 57 mm Hg
- heart rate (HR) (Group A, 1 mgA/kg SC bolus, 150 min post-dose, mean of 2, baseline 243): 275 beats/minute
- mean arterial pressure (MAP) (Group A, 1 mgA/kg SC bolus, 180 min post-dose, mean of 2, baseline 92): 60 mm Hg
- heart rate (HR) (Group A, 1 mgA/kg SC bolus, 180 min post-dose, mean of 2, baseline 243): 273 beats/minute
- mean arterial pressure (MAP) (Group A, 1 mgA/kg SC bolus, 210 min post-dose, mean of 2, baseline 92): 61 mm Hg
- heart rate (HR) (Group A, 1 mgA/kg SC bolus, 210 min post-dose, mean of 2, baseline 243): 273 beats/minute
- mean arterial pressure (MAP) (Group A, 1 mgA/kg SC bolus, 240 min post-dose, mean of 2, baseline 92): 65 mm Hg
- heart rate (HR) (Group A, 1 mgA/kg SC bolus, 240 min post-dose, mean of 2, baseline 243): 273 beats/minute
- duration of hemodynamic effect [1]: sustained over the entire 4 hour post-dose interval
- effect on heart rate [1]: increase in heart rate
- effect on mean arterial pressure [1]: decrease in mean arterial pressure
- onset of hemodynamic effect [1]: < 2 min
- mean arterial pressure (MAP) (Group B, 167 μg/kg/hr IV infusion for 4 hours, 5 min, mean of 2, baseline 87): 67 mm Hg
- heart rate (HR) (Group B, 167 μg/kg/hr IV infusion for 4 hours, 5 min, mean of 2, baseline 260): 296 beats/minute
- mean arterial pressure (MAP) (Group B, 167 μg/kg/hr IV infusion for 4 hours, 10 min, mean of 2, baseline 87): 67 mm Hg
- heart rate (HR) (Group B, 167 μg/kg/hr IV infusion for 4 hours, 10 min, mean of 2, baseline 260): 296 beats/minute
- mean arterial pressure (MAP) (Group B, 167 μg/kg/hr IV infusion for 4 hours, 15 min, mean of 2, baseline 87): 69 mm Hg
- heart rate (HR) (Group B, 167 μg/kg/hr IV infusion for 4 hours, 15 min, mean of 2, baseline 260): 296 beats/minute
- mean arterial pressure (MAP) (Group B, 167 μg/kg/hr IV infusion for 4 hours, 30 min, mean of 2, baseline 87): 68 mm Hg
- heart rate (HR) (Group B, 167 μg/kg/hr IV infusion for 4 hours, 30 min, mean of 2, baseline 260): 291 beats/minute
- mean arterial pressure (MAP) (Group B, 167 μg/kg/hr IV infusion for 4 hours, 60 min, mean of 2, baseline 87): 67 mm Hg
- heart rate (HR) (Group B, 167 μg/kg/hr IV infusion for 4 hours, 60 min, mean of 2, baseline 260): 293 beats/minute
- mean arterial pressure (MAP) (Group B, 167 μg/kg/hr IV infusion for 4 hours, 90 min, mean of 2, baseline 87): 57 mm Hg
- heart rate (HR) (Group B, 167 μg/kg/hr IV infusion for 4 hours, 90 min, mean of 2, baseline 260): 282 beats/minute
- mean arterial pressure (MAP) (Group B, 167 μg/kg/hr IV infusion for 4 hours, 120 min, mean of 2, baseline 87): 55 mm Hg
- heart rate (HR) (Group B, 167 μg/kg/hr IV infusion for 4 hours, 120 min, mean of 2, baseline 260): 282 beats/minute
- mean arterial pressure (MAP) (Group B, 167 μg/kg/hr IV infusion for 4 hours, 150 min, mean of 2, baseline 87): 52 mm Hg
- heart rate (HR) (Group B, 167 μg/kg/hr IV infusion for 4 hours, 150 min, mean of 2, baseline 260): 279 beats/minute
- mean arterial pressure (MAP) (Group B, 167 μg/kg/hr IV infusion for 4 hours, 180 min, mean of 2, baseline 87): 53 mm Hg
- heart rate (HR) (Group B, 167 μg/kg/hr IV infusion for 4 hours, 180 min, mean of 2, baseline 260): 285 beats/minute
- mean arterial pressure (MAP) (Group B, 167 μg/kg/hr IV infusion for 4 hours, 210 min, mean of 2, baseline 87): 56 mm Hg
- heart rate (HR) (Group B, 167 μg/kg/hr IV infusion for 4 hours, 210 min, mean of 2, baseline 260): 284 beats/minute
- mean arterial pressure (MAP) (Group B, 167 μg/kg/hr IV infusion for 4 hours, 240 min, mean of 2, baseline 87): 55 mm Hg
- heart rate (HR) (Group B, 167 μg/kg/hr IV infusion for 4 hours, 240 min, mean of 2, baseline 260): 297 beats/minute
- effect on heart rate [2]: slight increase in the heart rate
- effect on mean arterial pressure [2]: slight decrease in mean arterial pressure
- mean arterial pressure (MAP) (Group C, 16.7 μg/kg/hr IV infusion for 4 hours, 5 min, mean of 2, baseline 95): 91 mm Hg
- heart rate (HR) (Group C, 16.7 μg/kg/hr IV infusion for 4 hours, 5 min, mean of 2, baseline 291): 289 beats/minute
- mean arterial pressure (MAP) (Group C, 16.7 μg/kg/hr IV infusion for 4 hours, 10 min, mean of 2, baseline 95): 86 mm Hg
- heart rate (HR) (Group C, 16.7 μg/kg/hr IV infusion for 4 hours, 10 min, mean of 2, baseline 291): 299 beats/minute
- mean arterial pressure (MAP) (Group C, 16.7 μg/kg/hr IV infusion for 4 hours, 15 min, mean of 2, baseline 95): 84 mm Hg
- heart rate (HR) (Group C, 16.7 μg/kg/hr IV infusion for 4 hours, 15 min, mean of 2, baseline 291): 302 beats/minute
- mean arterial pressure (MAP) (Group C, 16.7 μg/kg/hr IV infusion for 4 hours, 30 min, mean of 2, baseline 95): 84 mm Hg
- heart rate (HR) (Group C, 16.7 μg/kg/hr IV infusion for 4 hours, 30 min, mean of 2, baseline 291): 306 beats/minute
- mean arterial pressure (MAP) (Group C, 16.7 μg/kg/hr IV infusion for 4 hours, 60 min, mean of 2, baseline 95): 85 mm Hg
- heart rate (HR) (Group C, 16.7 μg/kg/hr IV infusion for 4 hours, 60 min, mean of 2, baseline 291): 300 beats/minute
- mean arterial pressure (MAP) (Group C, 16.7 μg/kg/hr IV infusion for 4 hours, 90 min, mean of 2, baseline 95): 83 mm Hg
